Here are results for one compound from patent publication US20060222628A1, “Gallium complexes of 3-hydroxy-4-pyrones to treat infection by intracellular prokaryotes and DNA viruses” (priority 1999, published 2006).

Data set [1] is classed as physicochemical. The method, then: The material forms white to pale beige monoclinic crystals with unit cell parameters of about a=7.899(1)Å, b=8.765(1)Å, c=31.626(2)Å, beta=103.253(7) degrees, V=2131 Å^3, based on powder x-ray diffraction analysis. The solubility of this compound is measured as about 5 millimolar in distilled deionized water at 23° C. Crystallization from other solvents or under other conditions may produce other crystal structures. Under some conditions, water or other solvents may also be incorporated into the structure. […] About 5.5 grams of powdered anhydrous sodium carbonate are added, and stirring continues for additional 12 minutes. […] The remaining crystalline solid is the 3:1 maltol gallium composition. […] The solubility of this composition is measured as about 24 millimolar in distilled deionized water at 23° C.

The next data set deals with CMV. As to the kind of experiment: Clinical evaluation for prevention of CMV disease in HIV patients: CMV. Type of data set: in vivo, human. An excerpt: In this example, prevention of CMV disease rather than its treatment will be studied. Chemo-prevention by antivirals is preferred, rather than with immune stimulating agents such as interferons, because interferons require regular administration by injection. Foscarnet is an antiviral only for injection, but it is studied for comparison with oral antivirals. […] In addition to the methods used in Example 5 for evaluating the HIV disease, some of the methods employed in the following reference are used in the evaluation: Monkemuller et al. (2000), “Esophageal ulcer caused by cytomegalovirus: resolution during combination antiretroviral therapy for acquired immunodeficiency syndrome,” South Med. J. 93(8):8 18-20. Patients are treated once per day with gelatin capsules containing gallium maltolate. The population of patients with CMV (almost universal, seropositive or culture positive patients) and HIV infection are first divided into two subpopulations groups based on CD4+ counts (above 350/mm^3 and below 350/mm^3). The subpopulations are randomly and blindly divided into two groups each randomly subdivided into subgroups for a total of sixteen approximately equal subgroups that receive either 0 (placebo), 250, 500, or 750 mg/day gallium maltolate for about six months. All subgroups receive the identical regimen of non-gallium antiretroviral therapy as described in Example 5 (a HAART regime). The commonly used nucleoside analog for CMV is ganciclovir, with foscavir used in cases where ganciclovir is ineffective, and the combination used to treat refractory CMV retinitis and other conditions. Foscarnet must be infused slowly to avoid adverse reactions. […] Patients are monitored for HIV disease precisely as described in Example 5. Patients are also medically monitored for CMV disease, including testing and examination for medical symptoms of CMV disease, such as CMV retinitis, throughout the study. […]

A further data set concerns HIV. As to the kind of experiment: Clinical evaluation for prevention of CMV disease in HIV patients: HIV. It counts as in vivo. The conditions noted are these: CMV prevention study; MacSynergy II.
The test system of a further data set is Varicella-Zoster (VZV). As to the kind of experiment: Clinical evaluation for Varicella-Zoster (VZV) infection and recurrences. Type of data set: in vivo, human. As for the experimental part:
Gallium maltolate is evaluated clinically for efficacy in treating Varicella-Zoster (VZV) infection in HIV negative individuals who show no signs of immune dysfunction of any type. Patients with VZV infection are treated once per day with gelatin capsules containing gallium maltolate. The population of patients is divided into subpopulation with recurrent VZV (shingles) and acute VZV infections (chickenpox) respectively. These different subpopulations are divided randomly and blindly into two approximately equal groups with four approximately equal subgroups that receive either 0 (placebo), 250, 500, or 750 mg/day gallium maltolate for about six months. The first group of each subpopulation receive the gallium maltolate dose together with 800 mg acyclovir five times per day. The second group of each subpopulation receive the gallium maltolate dose together with 500 mg ganciclovir twice per day. Patients are medically monitored for resolution reoccurrences of latent VZV infection, or medical symptoms of acute VZV infection throughout the study, with the monitoring including in situ hybridization of skin lesions for VZV DNA. In addition for the acute VZV infected group, blood serum samples are obtained from the patients at days 1-5 and are assayed for VZV particles by routine methods and for VZV DNA (viral load assay) using PCR.

The target in another data set is T1, transferrin (Tf) (Homo sapiens, UniProt P02787).
T1 construct: host or cells: circulating (blood plasma) transferrin of the dosed subject
The conditions noted are these: oral, versus intravenous gallium nitrate; cited from earlier work.

The conditions of data set [2]: in vivo. An excerpt: Gallium is absorbed very poorly when orally administered as salts such as the chloride or nitrate (Collery et al. (1989), “Clinical pharmacology of gallium chloride after oral administration in lung cancer patients,” Anticancer Res. 9:353-356; Ho et al. […] J.
Another data set deals with HIV infection. The data set can be described thus: Clinical evaluation for treating HIV infection. To be noted: 250, 500 or 750 mg/day oral about six months, with AZT, ddI and indinavir. It counts as in vivo, human. The method, then: Patients with HIV infection are treated once per day with gelatin capsules containing 250 mg gallium maltolate. Patients are divided randomly and blindly into approximately equal groups that receive either 0 (placebo), 250, 500, or 750 mg/day gallium maltolate for about six months, together with 300 mg AZT twice per day, 200 mg ddI twice per day, and 800 mg indinavir every eight hours. Patients are medically monitored for symptoms of HIV infection throughout the study. In addition, blood serum samples are obtained from the patients at days 0, 30, 90, and 180 and are assayed for CD4 T-cell count by routine methods and for HIV-1 RNA (viral load assay) using the Roche […] ultra-assay (Sun et al. (1998), “Ultrasensitive reverse transcription-PCR assay for quantitation of human immunodeficiency virus type 1 RNA in plasma,” J. Clin. Microbiol. 36(10):2964-2969).

T1 sequence (P02787 20-698, species assumed): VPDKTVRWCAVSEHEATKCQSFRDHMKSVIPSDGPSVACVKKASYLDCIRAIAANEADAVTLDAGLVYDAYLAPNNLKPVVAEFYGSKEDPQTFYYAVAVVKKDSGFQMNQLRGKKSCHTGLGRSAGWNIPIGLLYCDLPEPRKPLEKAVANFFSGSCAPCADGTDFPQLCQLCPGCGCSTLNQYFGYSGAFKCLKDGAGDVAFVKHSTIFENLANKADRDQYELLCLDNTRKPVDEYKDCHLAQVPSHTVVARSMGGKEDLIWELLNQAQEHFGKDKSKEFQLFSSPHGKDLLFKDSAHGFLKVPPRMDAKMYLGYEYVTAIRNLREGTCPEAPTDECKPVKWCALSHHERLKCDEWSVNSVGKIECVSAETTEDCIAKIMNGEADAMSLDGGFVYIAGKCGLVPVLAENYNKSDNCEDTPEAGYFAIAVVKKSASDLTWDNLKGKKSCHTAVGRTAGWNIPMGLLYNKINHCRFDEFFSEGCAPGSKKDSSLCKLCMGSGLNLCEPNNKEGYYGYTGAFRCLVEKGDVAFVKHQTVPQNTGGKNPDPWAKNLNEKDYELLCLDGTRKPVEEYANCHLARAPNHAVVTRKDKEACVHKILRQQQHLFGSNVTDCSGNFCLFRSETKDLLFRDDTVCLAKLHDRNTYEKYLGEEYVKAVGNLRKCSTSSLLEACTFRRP

For `Cc1occc(=O)c1[O-].Cc1occc(=O)c1[O-].Cc1occc(=O)c1[O-].[Ga+3]` [gallium maltolate, tris(3-hydroxy-2-methyl-4H-pyran-4-onato)gallium], the Solubility result in data set [1] was “about 24 millimolar”. In addition, in the data set with CMV (HIV patients on HAART, with foscarnet or ganciclovir), the “Efficacy in preventing CMV disease in combination” value was “effective in combination with either foscarnet or ganciclovir”. The “Prevention of CMV disease with only oral agents” value with CMV (gallium plus ganciclovir versus placebo plus ganciclovir) is “adequate and effecting better results than placebo plus ganciclovir”. Further, the “Synergy in preventing CMV disease” value in the data set with CMV (with foscarnet or ganciclovir) is on record as “synergistic with both”. For the same compound, the “Synergy with the HAART regime on HIV infection” value in the data set with HIV is given as “synergistic with the HAART regime in their effects upon the HIV infection”. In addition, the “Efficacy in treating VZV infection” value in the data set on Varicella-Zoster (VZV) (HIV negative patients, 250-750 mg/day oral with acyclovir or ganciclovir) was “effective for treating VZV infection, including recurrent sores as well as more serious systemic disease”. Besides, the “Efficacy of combination with acyclovir or ganciclovir versus single agents” value in the data set with Varicella-Zoster (VZV) (VZV) is “more effective than either agent alone”. Further, the “Synergy with nucleoside analogs” value with Varicella-Zoster (VZV) (VZV, MacSynergy II) was “synergy of gallium with both nucleoside analogs is also demonstrated”. At transferrin (Tf), the “Tf binding of absorbed gallium and tissue distribution” value is “higher Tf binding of absorbed gallium and therefore better tissue distribution than intravenous gallium nitrate”. Also, the “Oral gallium absorption relative to gallium salts” value in data set [2] was “roughly ten times higher than from gallium salts”. Moreover, the “Efficacy in treating HIV infection” value with HIV infection is given as “effective for treating HIV infection”.
